Experimental data: PubChem BioAssay (NCI)
Where “and” joins values, the source holds several entries; their conditions need not be identical. Identical values can stand only once.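 Five concentrations, 48 hours, 96-well plates. Here, GI50 denotes the concentration required for 50% inhibition of growth. The concentration for full growth arrest is given as TGI.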

Columns and labels:
Assay in all cases: inhibition of tumour cell growth, NCI panel, 48 h
HS 578T breast = tested on: HS 578T breast
A549 NSCLC = tested on: A549 NSCLC
IGROV1 ovarian = tested on: IGROV1 ovarian
MALME-3M melanoma = tested on: MALME-3M melanoma
786-0 renal = tested on: 786-0 renal
KM12 colon = tested on: KM12 colon
T-47D breast = tested on: T-47D breast
SNB-19 CNS = tested on: SNB-19 CNS
CAKI-1 renal = tested on: CAKI-1 renal

`NS(=O)(=O)c1ccc(N2C(=O)C(=O)N(c3ccccc3)C2=S)cc1` was tested, and the TGI (HS 578T breast) was > 100 µM, the TGI (A549 NSCLC) was > 100 µM and the TGI (IGROV1 ovarian) was > 100 µM. The TGI (MALME-3M melanoma) was > 100 µM, the TGI (786-0 renal) was > 100 µM and the TGI (KM12 colon) was > 100 µM. For the same compound, the TGI (T-47D breast) was > 100 µM, the TGI (SNB-19 CNS) was > 100 µM and the TGI (CAKI-1 renal) was > 100 µM.

For `C=COC(=O)N1C2CCCC(Cl)(C(C)=O)C1CC2` (stereo unspecified), the TGI (HS 578T breast) was > 100 µM, the TGI (A549 NSCLC) was > 100 µM and the TGI (IGROV1 ovarian) was > 100 µM. For the same compound, the TGI (MALME-3M melanoma) was > 100 µM, the TGI (786-0 renal) was > 100 µM and the TGI (KM12 colon) was > 100 µM. For the same compound, the TGI (T-47D breast) was > 100 µM, the TGI (SNB-19 CNS) was > 100 µM and the TGI (CAKI-1 renal) was > 100 µM.

With `Clc1nc(Nc2nc3ccccc3[nH]2)nc(Cl)c1-c1ccccc1` the TGI (HS 578T breast) was 56.4 µM, the TGI (A549 NSCLC) was > 100 µM and the TGI (IGROV1 ovarian) was 54.2 µM. For the same compound, the TGI (MALME-3M melanoma) was 38.6 µM, the TGI (786-0 renal) was 34.6 µM and the TGI (KM12 colon) was > 100 µM. For the same compound, the TGI (T-47D breast) was > 100 µM, the TGI (SNB-19 CNS) was > 100 µM and the TGI (CAKI-1 renal) was > 100 µM.

`Cc1cc(=O)n2nc(CSc3n[nH]c(=S)s3)sc2n1` was tested, and the TGI (HS 578T breast) was > 100 µM, the TGI (A549 NSCLC) was > 100 µM and the TGI (IGROV1 ovarian) was > 100 µM. The TGI (MALME-3M melanoma) was > 100 µM, the TGI (786-0 renal) was > 100 µM and the TGI (KM12 colon) was > 100 µM. For the same compound, the TGI (T-47D breast) was > 100 µM, the TGI (SNB-19 CNS) was > 100 µM and the TGI (CAKI-1 renal) was > 100 µM.

`COc1ccc2c(c1)C(=O)[C@@](Nc1ccc(C=O)cc1)(OC)[C@@](OC)(c1ccc([N+](=O)[O-])cc1)O2` was tested, and the TGI (HS 578T breast) was > 10 µM, the TGI (A549 NSCLC) was > 10 µM and the TGI (IGROV1 ovarian) was > 10 µM. The TGI (MALME-3M melanoma) was > 10 µM, the TGI (786-0 renal) was > 10 µM and the TGI (KM12 colon) was > 10 µM. For the same compound, the TGI (T-47D breast) was > 10 µM, the TGI (SNB-19 CNS) was > 10 µM and the TGI (CAKI-1 renal) was > 10 µM.

Compound `COc1ncc(C#CC(=O)c2ccccc2)c(OC)n1` has a TGI (HS 578T breast) of 87 µM, a TGI (A549 NSCLC) of 33.1 µM and a TGI (IGROV1 ovarian) of 7.49 µM. It also gave a TGI (MALME-3M melanoma) of 3.62 µM, a TGI (786-0 renal) of 4.2 µM and a TGI (KM12 colon) of 22.9 µM. It also gave a TGI (T-47D breast) of 15.8 µM, a TGI (SNB-19 CNS) of 31.6 µM and a TGI (CAKI-1 renal) of 7.3 µM.

In the case of `Cc1c(C#N)c(N)n(C2OC(CO)C(O)C(O)C2O)c(=S)c1C#N` (stereo unspecified), the TGI (HS 578T breast) was > 100 µM, the TGI (A549 NSCLC) was > 100 µM and the TGI (IGROV1 ovarian) was > 100 µM. For the same compound, the TGI (MALME-3M melanoma) was > 100 µM, the TGI (786-0 renal) was > 100 µM and the TGI (KM12 colon) was > 100 µM. The GI50 (T-47D breast) was > 100 µM, the TGI (T-47D breast) was > 100 µM and the TGI (SNB-19 CNS) was > 100 µM. For the same compound, the GI50 (CAKI-1 renal) was 24.4 µM and > 100 µM and the TGI (CAKI-1 renal) was > 100 µM.

`C=CC(C)(C)n1cc(C2=C(O)C(=O)C(c3c(CC=C(C)C)[nH]c4ccccc34)=C(O)C2=O)c2ccccc21` gave a TGI (HS 578T breast) of 25 µM, a TGI (A549 NSCLC) of 7.85 µM and a TGI (IGROV1 ovarian) of 2.45 µM. The TGI (MALME-3M melanoma) was 3.9 µM, the TGI (786-0 renal) was 6.97 µM and the TGI (KM12 colon) was 2.63 µM. For the same compound, the TGI (T-47D breast) was 7.59 µM, the TGI (SNB-19 CNS) was 10.8 µM and the TGI (CAKI-1 renal) was 7.16 µM.

`C=C(C)C1CC2=C(O1)C(=O)c1cccc(O)c1C2=O` (stereo unspecified) showed a TGI (HS 578T breast) of 5.34 µM, a TGI (A549 NSCLC) of 4.9 µM and a TGI (IGROV1 ovarian) of 0.617 µM. For the same compound, the TGI (MALME-3M melanoma) was 2.31 µM, the TGI (786-0 renal) was > 100 µM and the TGI (KM12 colon) was 3.27 µM. For the same compound, the TGI (T-47D breast) was 3.04 µM, the TGI (SNB-19 CNS) was 3.11 µM and the TGI (CAKI-1 renal) was 2.08 µM.

With `OC[C@@H](O)[C@H](O)[C@@H](O)/C=N/Nc1ccc(Cl)nn1` the TGI (HS 578T breast) was > 100 µM, the TGI (A549 NSCLC) was > 100 µM and the TGI (IGROV1 ovarian) was > 100 µM. The TGI (MALME-3M melanoma) was > 100 µM, the TGI (786-0 renal) was > 100 µM and the TGI (KM12 colon) was > 100 µM. The TGI (T-47D breast) was > 100 µM, the TGI (SNB-19 CNS) was > 100 µM and the TGI (CAKI-1 renal) was > 100 µM.

In the case of `Fc1cc2nc3n(c2cc1F)C(c1c(Cl)cccc1Cl)SC3` (stereo unspecified), the TGI (HS 578T breast) was 53.2 µM, the TGI (A549 NSCLC) was 28 µM and the TGI (IGROV1 ovarian) was 34 µM. It also gave a TGI (MALME-3M melanoma) of 33.8 µM, a TGI (786-0 renal) of 28.3 µM and a TGI (KM12 colon) of 26.2 µM. For the same compound, the TGI (T-47D breast) was 31.7 µM, the TGI (SNB-19 CNS) was 27 µM and the TGI (CAKI-1 renal) was 27.1 µM.

`COc1ccc(Br)c(C=Nc2cccc3cc(OC)c(OC)cc23)c1` was tested, and the TGI (HS 578T breast) was 57.1 µM, the TGI (A549 NSCLC) was > 100 µM and the TGI (IGROV1 ovarian) was > 93.9 µM. The TGI (MALME-3M melanoma) was 99.6 µM, the TGI (786-0 renal) was > 100 µM and the TGI (KM12 colon) was > 95.7 µM. The TGI (T-47D breast) was > 100 µM, the TGI (SNB-19 CNS) was > 100 µM and the TGI (CAKI-1 renal) was > 100 µM.

`CC(C)C[C@H](NC(=O)CCc1cccc2ccccc12)B(O)O` was tested, and the TGI (HS 578T breast) was 7.4 µM, the TGI (A549 NSCLC) was 49.7 µM and the TGI (IGROV1 ovarian) was 23.8 µM. The TGI (MALME-3M melanoma) was 5.23 µM, the TGI (786-0 renal) was 28.3 µM and the TGI (KM12 colon) was 5.4 µM. The TGI (T-47D breast) was 4.23 µM, the TGI (SNB-19 CNS) was > 100 µM and the TGI (CAKI-1 renal) was 3.94 µM.

In the case of `CC1(C)CN=C(Nc2ccc(F)c(Cl)c2)S1`, the TGI (HS 578T breast) was > 100 µM, the TGI (A549 NSCLC) was > 100 µM and the TGI (IGROV1 ovarian) was > 100 µM. For the same compound, the TGI (MALME-3M melanoma) was > 100 µM, the TGI (786-0 renal) was > 100 µM and the TGI (KM12 colon) was > 100 µM. The TGI (T-47D breast) was > 100 µM, the TGI (SNB-19 CNS) was > 100 µM and the TGI (CAKI-1 renal) was > 100 µM.

`O=C1c2cc([N+](=O)[O-])sc2C(=O)c2cc([N+](=O)[O-])sc21` showed a TGI (HS 578T breast) of 35 µM, a TGI (A549 NSCLC) of 49.6 µM and a TGI (IGROV1 ovarian) of 3.07 µM. The TGI (MALME-3M melanoma) was 2.38 µM, the TGI (786-0 renal) was 6.78 µM and the TGI (KM12 colon) was 14.8 µM. For the same compound, the TGI (T-47D breast) was 10.8 µM, the TGI (SNB-19 CNS) was 8.9 µM and the TGI (CAKI-1 renal) was 8.81 µM.

`O=C(N[C@@H](Cc1ccccc1)B(O)O)[C@H](Cc1cccc2ccccc12)NC(=O)N1CCOCC1` was tested, and the TGI (HS 578T breast) was 0.213 µM, the GI50 (A549 NSCLC) was 0.0123 µM and the TGI (A549 NSCLC) was 0.47 µM. For the same compound, the TGI (IGROV1 ovarian) was 0.07 µM and 0.0754 µM, the TGI (MALME-3M melanoma) was 0.0103 µM and 0.0226 µM and the TGI (786-0 renal) was 0.271 µM and 0.12 µM. The TGI (KM12 colon) was 0.0041 µM and 0.0149 µM, the TGI (T-47D breast) was 0.00368 µM and the TGI (SNB-19 CNS) was 0.671 µM. The GI50 (CAKI-1 renal) was 0.0228 µM and the TGI (CAKI-1 renal) was 0.048 µM and 0.18 µM.

`COC(=O)C1SC[C@H]2C(=O)N(c3ccccc3)C(=O)N12` (stereo partly specified) was tested, and the TGI (HS 578T breast) was > 100 µM, the TGI (A549 NSCLC) was > 100 µM and the TGI (IGROV1 ovarian) was > 100 µM. The TGI (MALME-3M melanoma) was > 100 µM, the TGI (786-0 renal) was > 100 µM and the TGI (KM12 colon) was > 100 µM. For the same compound, the TGI (T-47D breast) was > 100 µM, the TGI (SNB-19 CNS) was > 100 µM and the TGI (CAKI-1 renal) was > 100 µM.

Compound `CCOC(=O)/C=C(/C(=O)OCC)n1ccc(=O)n(CC(=O)OCC)c1=O` has a TGI (HS 578T breast) of 26.4 µM, a TGI (A549 NSCLC) of 16.8 µM and a TGI (IGROV1 ovarian) of 3.33 µM. It also gave a TGI (MALME-3M melanoma) of 1.71 µM, a TGI (786-0 renal) of 1.67 µM and a TGI (KM12 colon) of 7.95 µM. For the same compound, the TGI (T-47D breast) was 2.55 µM, the TGI (SNB-19 CNS) was 25.4 µM and the TGI (CAKI-1 renal) was 0.32 µM.
